Legend:
AMP deaminase [1] = conditions: Ki as low as; cited from earlier work
[2] = test system: AMP deaminase in isolated cardiomyoctes; conditions: isolated cardiomyocytes; cited from earlier work
[3] = test system: purified human cardiac AMP deaminase; conditions: purified enzyme; cited from earlier work
adenosine deaminase [4] = molecular target: T1, adenosine deaminase (Homo sapiens, UniProt P00813); conditions: cited from earlier work
T1 sequence (P00813 1-363): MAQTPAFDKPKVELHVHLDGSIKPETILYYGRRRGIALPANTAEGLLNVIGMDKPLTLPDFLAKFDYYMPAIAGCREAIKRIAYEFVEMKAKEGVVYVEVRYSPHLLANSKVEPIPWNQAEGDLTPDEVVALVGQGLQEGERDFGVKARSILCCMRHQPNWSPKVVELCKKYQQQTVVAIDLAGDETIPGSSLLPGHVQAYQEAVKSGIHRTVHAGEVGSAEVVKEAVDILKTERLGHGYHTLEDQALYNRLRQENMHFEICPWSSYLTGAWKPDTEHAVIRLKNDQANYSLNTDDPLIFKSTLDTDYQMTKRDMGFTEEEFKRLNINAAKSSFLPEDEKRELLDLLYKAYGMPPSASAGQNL

HepG2 cells [5] = experiment: Fructose-stimulated HepG2 cells treated with metformin or AICAR; type: cell-based, human; conditions: for rise in intracellular triglycerides in response to fructose: HepG2, fructose 5 mM; for fall in enoyl CoA hydratase-1 (ECH-1) levels (defect in fat oxidation): HepG2, fructose 5 mM for 72 hrs, densitometry of western blot
[6] = test system: AMPD isolated from squirrel liver (AMPD2); experiment: AMP deaminase activity by ammonia production; type: biochemical
Description: AMP deaminase activity was determined by estimating the production of ammonia by a modification of the method described by Chaney and Marbach. See, Chaney et al., Clin Chem., 1962, 8, 130-132; Ito et al., J Biochem., 1988, 103, 259-262; and Sims et al., Neurobiol Aging., 1998, 19, 385-391. Briefly, the reaction mixture consisted of 25 mM sodium citrate, pH 6.0, 50 mM potassium chloride, and different concentration of AMP. The enzyme reaction was initiated by the addition of the enzyme solution and incubated at 37° C. for 15 min. The reaction was stopped with the addition of the phenol/hypochlorite reagents: Reagent A (100 mM phenol and 0.050 g/L sodium nitroprusside in H2O) was added, followed by reagent B (125 mM sodium hydroxide, 200 mM dibasic sodium phosphate, and 0.1% sodium hypochlorite in H2O) and incubated for 30 min at 25° C. The absorbance of the samples was measured at 625 nm with a spectrophotometer. To determine the absolute specific activity of ammonia production (micromoles ammonia/min), a calibration curve was determined in the range of 5 μM to 1 mM of ammonia.
Using the procedure above, various AMPD2 inhibitors were assayed. […] For this assay AMPD isolated from squirrel liver was used, which only expresses AMPD2 and not the other AMPD isoforms.

AMP deaminase [7] = conditions: cited from earlier work
HepG2 cells [8] = conditions: with IMP
adenosine deaminase [9] = molecular target: T1, adenosine deaminase; conditions: cited from earlier work; remark: listed apart in the source
AMPD2 = molecular target: T2, AMPD2 (Homo sapiens, UniProt Q01433); experiment: AMPD2 regulation by fructose-1-phosphate; type: biochemical; conditions: FIG. 15
T2 sequence (Q01433 1-825): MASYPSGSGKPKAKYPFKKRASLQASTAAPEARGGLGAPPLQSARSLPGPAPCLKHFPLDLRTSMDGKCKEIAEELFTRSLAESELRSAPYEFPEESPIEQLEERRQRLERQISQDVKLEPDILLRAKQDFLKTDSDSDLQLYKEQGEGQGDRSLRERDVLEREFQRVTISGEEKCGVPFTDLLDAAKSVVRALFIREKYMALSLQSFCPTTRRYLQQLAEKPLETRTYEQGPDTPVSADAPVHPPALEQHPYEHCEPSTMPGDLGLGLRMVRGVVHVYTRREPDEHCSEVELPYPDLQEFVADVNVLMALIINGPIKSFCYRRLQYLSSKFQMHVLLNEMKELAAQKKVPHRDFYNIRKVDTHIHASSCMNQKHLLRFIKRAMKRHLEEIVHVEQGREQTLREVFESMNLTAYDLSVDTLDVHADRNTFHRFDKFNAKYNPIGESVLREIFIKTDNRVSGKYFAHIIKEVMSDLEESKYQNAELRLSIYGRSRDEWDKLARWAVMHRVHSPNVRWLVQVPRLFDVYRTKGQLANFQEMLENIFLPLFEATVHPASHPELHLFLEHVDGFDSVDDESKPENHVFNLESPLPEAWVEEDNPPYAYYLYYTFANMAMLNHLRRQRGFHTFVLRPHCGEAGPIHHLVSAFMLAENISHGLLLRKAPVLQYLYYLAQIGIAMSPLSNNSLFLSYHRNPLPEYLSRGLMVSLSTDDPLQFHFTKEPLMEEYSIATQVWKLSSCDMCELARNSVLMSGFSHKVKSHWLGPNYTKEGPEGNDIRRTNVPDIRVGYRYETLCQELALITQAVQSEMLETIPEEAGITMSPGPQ
Excerpt: Fructokinase uses ATP to phosphorylate fructose to fructose-1-phosphate leading to a reduction of ATP and generation of AMP, leading to the activation of AMPD2.

[10] = test system: fructose induced fatty liver; experiment: Fructose induced fatty liver and hypertriglyceridemia in rats; type: in vivo, Male Sprague Dawley rats
Excerpt: Fructose only and control diet rats also received daily i.p injections of vehicle. At the end of two weeks rats were sacrificed. […] FIG. 12A. […] FIG. 12B.

AMPD2 mRNA = experiment: Silencing of AMPD2 with shRNA in HepG2 cells; type: cell-based, human
Excerpt: An shRNA for AMPD2 was employed to silence human hepatic cells (HepG2). (FIGS. 3 and 4) The silencing vector pSM2-AMPD2 (V2HS—172668, Open Biosystems) incorporates a 22-base shRNAmir trigger designed to mimic a natural microRNA primary transcript. The target sequence is specific for human AMPD2 and has been selected based on thermodynamic criteria for optimal small RNA performance. The specific sequence is 5′-[…]-3′(SEQ ID NO: 1).
The immortalized human hepatocytes cell line, HepG2, was transfected with the silencing vector pSM2-AMPD2 using Lipofectamine LTX Plus (Invitrogen) as described by the manufacturer (FIG. 4). Briefly, cell cultures were grown to 90-95% confluence in normal growth media and in 24-well plates. Lipid-DNA complexes were prepared as per recommended protocols using growth media without serum. 100 μl of the lipid-DNA solution was added per well of attached cells and incubated for 4 hrs at 37° C. Wells were then diluted with 1.5 ml of normal growth media and incubated for an additional 24 hrs prior to addition of selective media containing 1 μg/mL Puromycin antibiotic. After 7 days, stable transfectants (clones) were selected with glass cloning rings, replated and a second colony selection was performed to provide a clean clone for analysis. Validation of AMPD2 gene knock down was performed by harvesting protein and performing a Western blot for protein expression. Clone #5 was subsequently used for the experiments and was designated as sAMPD2.
A key enzyme in Beta fatty acid oxidation, enoyl CoA hydratase-1 (ECH-1), was stimulated in control cells as well as fructose treated cells in which AMPD2 had been silenced. The inhibition of AMPD2 by sAMPD2 was accompanied by an upregulation of phosphorylated AMPkinase (Thr172) in both unstimulated and fructose stimulated hepatocytes, whereas total AMPK was not altered.
The stimulation of fat oxidation in AMPD2 knocked down hepatocytes was confirmed by measuring β hydroxybutyrate, a fat oxidation product (FIG. 5B).
The stimulation of phosphorylated AMP kinase in human hepatocytes (HepG2 cells) by silencing AMPD2 with shRNA as shown in FIG. 5A led to […] of target genes as noted by Western blot (FIG. 6A). For example, the phosphorylated form of Acetyl CoA Carboxylase (pACC) which is involved in triglyceride synthesis was induced by silencing AMPD2 in both unstimulated and fructose stimulated cells. […] Importantly, these changes blocked the triglyceride accumulation in HepG2 cells in response to fructose (FIG. 6B).
Silencing AMPD2 prevented the upregulation of KHK in response to fructose.

[11] = unstimulated and fructose stimulated hepatocytes

3-[2-(3-carboxy-4-bromo-5,6,7,8-tetrahydronaphthyl)ethyl]-3,6,7,8-tetrahydroimidazo[4,5-d][1,3]diazepin-8-ol [compound 24b]
Ki (AMP deaminase [1]): 2 nM | concentration found to inhibit the enzyme [2]: 0.5 mM | concentration found to inhibit [3]: 0.5 µM | activity for adenosine deaminase (adenosine deaminase [4]): minimal activity

NC(=O)c1ncn([C@@H]2O[C@H](CO)[C@@H](O)[C@H]2O)c1N [AICAR, aminoimidazole carboxamide ribonucleotide]
rise in intracellular triglycerides in response to fructose (HepG2 cells [5]): prevented the rise | fall in enoyl CoA hydratase-1 (ECH-1) levels (defect in fat oxidation) (HepG2 cells [5]): reversed | AMPD2 activity ([6]; FIG. 8A): inhibits AMPD2 activity in a dose dependent manner

OC[C@H]1O[C@@H](n2cnc3c2N=CNC[C@H]3O)[C@H](O)[C@@H]1O [Coformycin]
AMP deaminase inhibition (AMP deaminase [7]): inhibits

Oc1ncnc2[nH]ncc12 [allopurinol]
IMP-stimulated triglyceride accumulation (HepG2 cells [8]): partially blocked | rescue of the IMP-induced reduction in ECoAH (HepG2 cells [8]): cannot fully rescue

OC[C@H]1C[C@@H](n2cnc3cncnc32)[C@H](O)[C@@H]1O [carbocyclic nebularine]
AMP deaminase inhibition (AMP deaminase [7]): block | adenosine deaminase inhibition (adenosine deaminase [9]): block

OC[C@H]1O[C@@H](c2n[nH]c3cncnc23)[C@H](O)[C@@H]1O [deaminoformycin]
AMP deaminase inhibition (AMP deaminase [7]): block | adenosine deaminase inhibition (adenosine deaminase [9]): block

O=C(COP(=O)(O)O)[C@@H](O)[C@H](O)[C@H](O)CO [fructose-1-phosphate]
AMPD2 activity (AMPD2): increases

CN(C)C(=N)N=C(N)N [metformin]
rise in intracellular triglycerides in response to fructose (HepG2 cells [5]): prevented the rise | fall in enoyl CoA hydratase-1 (ECH-1) levels (defect in fat oxidation) (HepG2 cells [5]): reversed

OC[C@H]1O[C@@H](n2cnc3c2NC=NC[C@H]3O)C[C@@H]1O [pentostatin, deoxycoformycin]
rise in fasting serum triglycerides in response to fructose ([10]; at two weeks, 0.1 mg/kg daily i.p.): significantly reduced the rise | rise in serum triglycerides in response to a bolus of fructose ([10]; at two weeks, fructose 2 g/kg body weight by gavage): blocked the rise | fatty liver (lipid deposits, Oil Red O stain) ([10]; fructose 20% in water two weeks, 0.1 mg/kg daily i.p.): largely prevented | AMP deaminase inhibition (AMP deaminase [7]): block | inhibition of AMPD2 activity ([6]; in the presence of 2 mM AMP): 64% | inhibition of AMPD2 activity ([6]; in the presence of 10 mM AMP): 72%

sAMPD2: silencing vector pSM2-AMPD2 with 22-base shRNAmir specific for human AMPD2, 5′-ACCTGGGAATCTGCTCATTGTT-3′; stable HepG2 clone #5 (the letters are possibly those of the target site)
triglyceride accumulation in HepG2 cells in response to fructose (AMPD2 mRNA; FIG. 6B): blocked | AMPD2 expression (AMPD2 mRNA; control HepG2 cells, Western blot): reduced | enoyl CoA hydratase-1 (ECH-1) (AMPD2 mRNA; control cells as well as fructose treated cells): stimulated | increased AMPD2 expression (AMPD2 mRNA; fructose treated hepatocytes, Western blot): blocked | phosphorylated form of Acetyl CoA Carboxylase (pACC) (AMPD2 mRNA; unstimulated and fructose stimulated cells, Western blot): induced | phosphorylated AMPkinase (Thr172) (AMPD2 mRNA; [11]): upregulation | total AMPK (AMPD2 mRNA; [11]): not altered | phosphorylated form of glycogen synthase (pGS) (AMPD2 mRNA; unstimulated conditions and in the presence of fructose): induced
